Test results reported in ChEMBL document CHEMBL1151584, “6-Substituted Quinazolinone Angiotensin II Receptor Antagonists” (Bioorg Med Chem Lett, 1994).

Key:
[1] = molecular target: T1, Type-1 angiotensin II receptor (Bos taurus, UniProt P25104); experiment: In vitro binding affinity to angiotensin II receptor in bovine adrenal cortex; assay type: tissue-based
T1 sequence (P25104 whole entry): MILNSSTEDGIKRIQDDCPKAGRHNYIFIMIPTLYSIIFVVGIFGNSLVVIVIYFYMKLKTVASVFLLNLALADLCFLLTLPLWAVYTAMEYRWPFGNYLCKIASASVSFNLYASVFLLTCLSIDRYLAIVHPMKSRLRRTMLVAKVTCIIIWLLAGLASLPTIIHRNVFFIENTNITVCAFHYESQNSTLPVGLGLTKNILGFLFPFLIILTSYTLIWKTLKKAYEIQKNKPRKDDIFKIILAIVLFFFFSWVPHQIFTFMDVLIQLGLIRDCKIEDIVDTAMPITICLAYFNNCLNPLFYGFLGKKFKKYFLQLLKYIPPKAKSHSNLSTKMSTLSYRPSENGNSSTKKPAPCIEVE

[2] = Percent blockade of the vasopressor response to A II (0.05 ug/kg i.v.) at a dose of 5 mg/kg p.o. in A II challenge model.; assay type: functional; details: route oral
Rattus norvegicus = experiment: Decrease in Mean Arterial Blood Pressure(MABP) in Aorta […] rat model at a dose of 3 mg/kg p.o.; assay type: functional; details: route oral
[3] = Percent blockade of the vasopressor response to A II (0.05 ug/kg i.v.) at a dose of 5 mg/kg p.o. in A II challenge model; assay type: functional; details: route oral

| IC50 [1] [nM] | Compound | also measured |
| --- | --- | --- |
| 16 | CCCCc1nc2ccc([C@@H]3[C@H]4CCCN3OC4)cc2c(=O)n1Cc1ccc(-c2ccccc2-c2nnn[nH]2)cc1 |  |
| 180 | CCCCc1nc2ccc([C@H]3C4CCCCCCC4ON3C)cc2c(=O)n1Cc1ccc(-c2ccccc2-c2nn[nH]n2)cc1 (stereo partly specified) |  |
| 43 | CCCCc1nc2ccc([C@H]3C[C@H](CO)ON3C)cc2c(=O)n1Cc1ccc(-c2ccccc2-c2nnn[nH]2)cc1 |  |
| 900 | CCCCc1nc2ccc([C@H]3[C@@H]4C(=O)CCC[C@@H]4ON3C)cc2c(=O)n1Cc1ccc(-c2ccccc2-c2nn[nH]n2)cc1 |  |
| 98 | CCCCc1nc2ccc([C@H]3[C@@H]4CCC[C@@H]4ON3C)cc2c(=O)n1Cc1ccc(-c2ccccc2-c2nnn[nH]2)cc1 |  |
| 154 | CCCCc1nc2ccc([C@H]3C4CCCC4ON3C)cc2c(=O)n1Cc1ccc(-c2ccccc2-c2nn[nH]n2)cc1 (stereo partly specified) |  |
| 98 | CCCCc1nc2ccc([C@H]3[C@@H]4C(=O)CC[C@@H]4ON3C)cc2c(=O)n1Cc1ccc(-c2ccccc2-c2nnn[nH]2)cc1 |  |
| 150 | CCCCc1nc2ccc([C@@H]3[C@@H]4C(=O)OC[C@@H]4ON3C)cc2c(=O)n1Cc1ccc(-c2ccccc2-c2nnn[nH]2)cc1 |  |

The remaining lines, values behind:

| Compound | IC50 [1] [nM] | also measured |
| --- | --- | --- |
| CCCCc1nc2ccc([C@H]3OC[C@H]4[C@@H]3ON3[C@@H]4CCC3(C)C)cc2c(=O)n1Cc1ccc(-c2ccccc2-c2nnn[nH]2)cc1 | 53 |  |
| CCCCc1nc2ccc([C@H]3[C@@H]4C(=O)OC[C@@H]4ON3C)cc2c(=O)n1Cc1ccc(-c2ccccc2-c2nn[nH]n2)cc1 | 68 | Activity [2]: 95%; MABP (Rattus norvegicus): 60 mmHg |
| CCCCc1nc2ccc([C@@H]3C[C@H]4CCCCN3O4)cc2c(=O)n1Cc1ccc(-c2ccccc2-c2nnn[nH]2)cc1 | 42 |  |
| CCCCc1nc2ccc([C@@H]3C[C@H]4C5CCC(C)(C)N5O[C@H]4O3)cc2c(=O)n1Cc1ccc(-c2ccccc2-c2nn[nH]n2)cc1 (stereo partly specified) | 32 |  |
| CCCCc1nc2ccc([C@@H]3C[C@H]4C(c5ccccc5)=NO[C@H]4O3)cc2c(=O)n1Cc1ccc(-c2ccccc2-c2nn[nH]n2)cc1 | 76 |  |
| CCCCc1nc2ccc(C3=NN[C@H]4C(=O)N(C)C(=O)[C@@H]34)cc2c(=O)n1Cc1ccc(-c2ccccc2-c2nn[nH]n2)cc1 | 110 |  |
| CCCCc1nc2ccc([C@@H]3[C@@H]4C(=O)OC[C@@H]4ON3Cc3ccccc3)cc2c(=O)n1Cc1ccc(-c2ccccc2-c2nn[nH]n2)cc1 | 94 |  |
| CCCCc1nc2ccc([C@@H]3C[C@H](CO)ON3C)cc2c(=O)n1Cc1ccc(-c2ccccc2-c2nn[nH]n2)cc1 | 61 |  |
| CCCCc1nc2ccc([C@H]3[C@@H]4C(=O)OC[C@@H]4ON3Cc3ccccc3)cc2c(=O)n1Cc1ccc(-c2ccccc2-c2nnn[nH]2)cc1 | 177 |  |
| CCCCc1nc2ccc([C@@H]3C[C@H]4C(c5ccc(C)cc5)=NO[C@H]4O3)cc2c(=O)n1Cc1ccc(-c2ccccc2-c2nnn[nH]2)cc1 | 105 |  |
| CCCCc1nc2ccc([C@@H]3[C@@H]4C(=O)CC[C@@H]4ON3C)cc2c(=O)n1Cc1ccc(-c2ccccc2-c2nn[nH]n2)cc1 | 42 | Activity [3]: 95% |
| CCCCc1nc2ccc([C@H]3OC[C@@H]4ON5[C@@H](CCC5(C)C)[C@@H]43)cc2c(=O)n1Cc1ccc(-c2ccccc2-c2nn[nH]n2)cc1 | 38 | MABP (Rattus norvegicus): 45 mmHg |
| CCCCc1nc2ccc([C@H]3[C@@H]4C(=O)CC[C@@H]4ON3Cc3ccccc3)cc2c(=O)n1Cc1ccc(-c2ccccc2-c2nnn[nH]2)cc1 | 79 |  |
| CCCCc1nc2ccc(C3CCC4CCCCC4O3)cc2c(=O)n1Cc1ccc(-c2ccccc2-c2nn[nH]n2)cc1 (stereo unspecified) |  | MABP (Rattus norvegicus): 15 mmHg |
